Among the data in PMC10385826, “Towards Symmetric Thioamides: Microwave-Aided Synthesis of Terephthalic Acid Derivatives” (Pharmaceuticals, 2023) are melting point and LD50 values, retold here.

Details in one data set: not given
`COC(=O)C(Cc1ccc(O)cc1)NC(=O)c1ccc(C(=O)NC(Cc2ccc(O)cc2)C(=O)OC)cc1` (stereo not drawn) gave a melting point of 185 °C. Consider `COC(=O)C(NC(=O)c1ccc(C(=O)NC(C(=O)OC)C(C)C)cc1)C(C)C` (stereo not drawn), for which the melting point was 115 °C.

Molecule `COC(=O)C(CO)NC(=O)c1ccc(C(=O)NC(CO)C(=O)OC)cc1` (stereo not drawn) registered a melting point of 169 °C. The same measure, in the same setting: the result for `COC(=O)CNC(=S)c1ccc(C(=S)NCC(=O)OC)cc1` reads 86 °C; that for `COC(=O)C(C)NC(=S)c1ccc(C(=S)NC(C)C(=O)OC)cc1` (stereo not drawn), 174 °C; that for `COC(=O)C(Cc1ccc(O)cc1)NC(=S)c1ccc(C(=S)NC(Cc2ccc(O)cc2)C(=O)OC)cc1` (stereo not drawn), 170 °C. Same read-out and setting: the result for `COC(=O)C(NC(=S)c1ccc(C(=S)NC(C(=O)OC)C(C)C)cc1)C(C)C` (stereo not drawn) reads 160 °C; that for `COC(=O)C(CO)NC(=S)c1ccc(C(=S)NC(CO)C(=O)OC)cc1` (stereo not drawn), 179 °C.

Details of the next data set: method as in PMID 16673812. The settings on record: oral administration; cited from earlier work.
For `O=C(O)c1ccc(C(=O)O)cc1` [TPA, Terephthalic acid], the LD50 is recorded as more than 5000 mg/kg.

Usually melting point stands for the temperature of the solid-liquid transition. For orientation: LD50 means the dose at which mortality reaches 50%.
